Measured values published in patent publication US8815919B2, “Oxadiazole derivatives” (Merck Serono SA, priority 2009, dated 2014).
Structures can show the parent of a compound that is named as a salt. Where two headings read alike, the source gives them in different places.

Tests used:
[1] = molecular target: T1, S1P1 (Homo sapiens, UniProt P21453); assay: Receptor binding assay, [33P]sphingosine 1-phosphate competition, S1P1 membranes, WGA SPA beads
In short: (§1)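 Competition of [33P]S1P ([…]) on CHO cell membranes with WGA SPA beads in 50 mM HEPES pH 7.5, 5 mM MgCl2, 100 mM NaCl, 0.4% fatty acid-free BSA; 60 min at RT. Triplicates normalised to total binding and nonspecific binding (1000-fold excess unlabeled S1P).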
Target sequence in this assay (P21453 whole entry, species assumed): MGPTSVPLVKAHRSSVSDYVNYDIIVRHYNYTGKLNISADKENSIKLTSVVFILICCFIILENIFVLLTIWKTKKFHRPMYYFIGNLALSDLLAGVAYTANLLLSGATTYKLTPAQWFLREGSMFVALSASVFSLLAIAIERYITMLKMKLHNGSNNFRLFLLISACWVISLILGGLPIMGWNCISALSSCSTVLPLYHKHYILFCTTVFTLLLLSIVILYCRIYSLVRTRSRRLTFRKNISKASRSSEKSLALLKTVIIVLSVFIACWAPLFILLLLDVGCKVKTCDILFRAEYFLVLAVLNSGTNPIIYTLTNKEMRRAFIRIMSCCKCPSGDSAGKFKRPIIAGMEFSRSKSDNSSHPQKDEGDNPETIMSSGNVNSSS

[2] = molecular target: S1P3 (Homo sapiens, UniProt Q99500); assay: Receptor binding assay, [33P]sphingosine 1-phosphate competition, S1P3 membranes, WGA SPA beads
In short: as §1

[3] = molecular target: T1, S1P1; assay: S1P1 internalization assay in S1P1-U2OS cells (S1P1-EGFP), cell imaging; type: cell-based; set-up: host or cells: U2OS (human bone osteosarcoma epithelial cells), CMV promoter, geneticin selection; settings: 1 hour incubation
In short: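 U2OS cells stably expressing human S1P1-EGFP, plated overnight in 1% FCS medium, then serum-starved 2 h in 0.1% fatty-acid-free BSA before 1 h compound exposure at 37 °C. After PFA fixation and Hoechst staining, internalization imaged as EGFP spot count per nucleus.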
Target sequence in this assay (P21453 whole entry): as the sequence (P21453 whole entry, species assumed) above

[4] = 384 well-plate, read-out: S1P1 binding Ki (M) (384 well-plate)
[5] = 384 well-plate, read-out: S1P3 binding Ki (M) (384 well-plate)

Sequence of S1P3 (Q99500 whole entry, species assumed): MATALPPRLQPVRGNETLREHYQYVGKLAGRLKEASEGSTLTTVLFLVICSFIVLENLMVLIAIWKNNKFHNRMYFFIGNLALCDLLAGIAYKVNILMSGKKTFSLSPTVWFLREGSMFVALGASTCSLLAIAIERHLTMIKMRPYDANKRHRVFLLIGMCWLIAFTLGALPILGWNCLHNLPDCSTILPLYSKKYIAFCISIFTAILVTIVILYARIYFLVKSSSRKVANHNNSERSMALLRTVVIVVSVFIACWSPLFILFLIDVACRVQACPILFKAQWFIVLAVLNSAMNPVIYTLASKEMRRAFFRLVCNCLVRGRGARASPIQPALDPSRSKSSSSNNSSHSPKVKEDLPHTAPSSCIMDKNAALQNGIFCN

For `Cc1ccccc1-c1ccc(-c2nc(-c3ccc(CN(C)CC(=O)O)c(F)c3)no2)cc1C` [Example 131, N-{4-[5-(2,2′-dimethylbiphenyl-4-yl)-1,2,4-oxadiazol-3-yl]-2-fluorobenzyl}-N-methylglycine, hydrochloride salt], the Ki [1, 4] was 1.68e-09 M, the Ki [2, 5] was 1.98e-06 M and the EC50 [3] was 16.2 nM.
`Cc1ccccc1-c1ccc(-c2nc(-c3cccc(CN(C)CC(=O)O)c3)no2)cc1C` [Example 132, N-{3-[5-(2,2′-dimethylbiphenyl-4-yl)-1,2,4-oxadiazol-3-yl]benzyl}-N-methylglycine, hydrochloride salt] gave a Ki [1, 4] of 3.65e-09 M, a Ki [2, 5] of 1.64e-06 M and an EC50 [3] of 235 nM.
`Cc1ccccc1-c1ccc(-c2nc(-c3cc(F)cc(CN(C)CC(=O)O)c3)no2)cc1C` [Example 133, N-{3-[5-(2,2′-dimethylbiphenyl-4-yl)-1,2,4-oxadiazol-3-yl]-5-fluorobenzyl}-N-methylglycine, hydrochloride salt] showed a Ki [1, 4] of 2.81e-09 M, a Ki [2, 5] of 4.72e-07 M and an EC50 [3] of 42.2 nM.
`COC(C)c1cc(-c2nc(-c3ccc(CN(C)CC(=O)O)cc3)no2)ccc1-c1ccccc1C` (centres unmarked) [Example 140, N-(4-{5-[2-(1-methoxyethyl)-2′-methylbiphenyl-4-yl]-1,2,4-oxadiazol-3-yl}benzyl)-N-methylglycine, hydrochloride salt] was tested, and the Ki ([1]; 96 well-plate, read-out: S1P1 binding Ki (M) (96 well-plate)) was 1.89e-10 M, the Ki [1, 4] was 9.81e-10 M and the Ki ([2]; 96 well-plate, read-out: S1P3 binding Ki (M) (96 well-plate)) was 1.64e-07 M. It also gave a Ki [2, 5] of 3.89e-07 M and an EC50 [3] of 3.75 nM.
`Cc1ccccc1-c1ccc(-c2nc(-c3ccc(CNCCCC(=O)O)cc3)no2)cc1C(F)(F)F` [Example 142, 4-[(4-{5-[2′-methyl-2-(trifluoromethyl)biphenyl-4-yl]-1,2,4-oxadiazol-3-yl}benzyl)amino]butanoic acid] showed a Ki [1, 4] of 5.49e-10 M, a Ki [2, 5] of 3.73e-07 M and an EC50 [3] of 0.802 nM.
`COCc1cc(-c2nc(-c3ccc(CN(C)CC(=O)O)cc3C(F)(F)F)no2)ccc1-c1ccccc1C` [Example 143, 2-((4-(5-(2-(methoxymethyl)-2′-methylbiphenyl-4-yl)-1,2,4-oxadiazol-3-yl)-3-(trifluoromethyl)benzyl)(methyl)amino)acetic acid] showed a Ki [1, 4] of 2.32e-09 M, a Ki [2, 5] of 1.83e-06 M and an EC50 [3] of 85.5 nM.
For `COCc1cc(-c2nc(-c3ccc(CN(C)CC(=O)O)cc3Cl)no2)ccc1-c1ccccc1C` [Example 144, 2-((4-(5-(2-(methoxymethyl)-2′-methylbiphenyl-4-yl)-1,2,4-oxadiazol-3-yl)-3-chlorobenzyl)(methyl)amino)acetic acid], the Ki [1, 4] was 1.73e-09 M, the Ki [2, 5] was 3.55e-07 M and the EC50 [3] was 25.7 nM.
`COCc1cc(-c2nc(-c3ccc(CN(C)CC(=O)O)cc3F)no2)ccc1-c1ccccc1C` [Example 146, 2-((3-fluoro-4-(5-(2-(methoxymethyl)-2′-methylbiphenyl-4-yl)-1,2,4-oxadiazol-3-yl)benzyl)(methyl)amino)acetic acid, hydrochloride salt] showed a Ki [1, 4] of 9.36e-10 M, a Ki [2, 5] of 3.68e-07 M and an EC50 [3] of 33.6 nM.
For `COCc1cc(-c2nc(-c3cc(F)c(CNCC(=O)O)c(F)c3)no2)ccc1-c1ccccc1C` [Example 147, 2-(2,6-difluoro-4-(5-(2-(methoxymethyl)-2′-methylbiphenyl-4-yl)-1,2,4-oxadiazol-3-yl)benzylamino)acetic acid, hydrochloride salt], the Ki [1, 4] was 6.95e-10 M, the Ki [2, 5] was 1.35e-07 M and the EC50 [3] was 1.54 nM.
`COCc1cc(-c2nc(-c3ccc(CN(C)CC(=O)O)c(F)c3F)no2)ccc1-c1ccccc1C` [Example 149, 2-((2,3-difluoro-4-(5-(2-(methoxymethyl)-2′-methylbiphenyl-4-yl)-1,2,4-oxadiazol-3-yl)benzyl)(methyl)amino)acetic acid, hydrochloride salt] was tested, and the Ki [1, 4] was 1.26e-09 M, the Ki [2, 5] was 1.48e-07 M and the EC50 [3] was 9.54 nM.
For `COCc1cc(-c2nc(-c3cc(F)c(CN(C)CC(=O)O)c(F)c3)no2)ccc1-c1ccccc1C` [Example 151, 2-((2,6-difluoro-4-(5-(2-(methoxymethyl)-2′-methylbiphenyl-4-yl)-1,2,4-oxadiazol-3-yl)benzyl)(methyl)amino)acetic acid, hydrochloride salt], the Ki [1, 4] was 3.53e-09 M, the Ki [2, 5] was 3.9e-07 M and the EC50 [3] was 21.6 nM.
